# Read-outs that look alike come from different tables or passages of the source.
# Target: HiBit-WIZ fusion protein (Homo sapiens, UniProt O95785+Q96SW2)
# Experiment: Quantification of WIZ protein levels in HiBit tag fusion protein assay (WIZ HiBit assay in 293T cells)
# Assay type: cell-based
# Design: Dmax: dose or concentration left out as unconfirmed
# [1] = HEK-293T, 100 minus Amax; 293T cells; read-out: % degradation of WIZ (100-Amax)
# [2] = HEK-293T, DMSO-normalized, curve-fitted percentage of WIZ-HiBit remaining at 25 uM; 293T cells; read-out: WIZ Amax
# [3] = WIZ HiBit assay in 293T cells; 10-point, 5-fold dose response, highest concentration 25 μM, about 18 hours; read-out: WIZ AC50
# HiBit-WIZ fusion protein, sequence (O95785 whole entry, the tested form may be a part): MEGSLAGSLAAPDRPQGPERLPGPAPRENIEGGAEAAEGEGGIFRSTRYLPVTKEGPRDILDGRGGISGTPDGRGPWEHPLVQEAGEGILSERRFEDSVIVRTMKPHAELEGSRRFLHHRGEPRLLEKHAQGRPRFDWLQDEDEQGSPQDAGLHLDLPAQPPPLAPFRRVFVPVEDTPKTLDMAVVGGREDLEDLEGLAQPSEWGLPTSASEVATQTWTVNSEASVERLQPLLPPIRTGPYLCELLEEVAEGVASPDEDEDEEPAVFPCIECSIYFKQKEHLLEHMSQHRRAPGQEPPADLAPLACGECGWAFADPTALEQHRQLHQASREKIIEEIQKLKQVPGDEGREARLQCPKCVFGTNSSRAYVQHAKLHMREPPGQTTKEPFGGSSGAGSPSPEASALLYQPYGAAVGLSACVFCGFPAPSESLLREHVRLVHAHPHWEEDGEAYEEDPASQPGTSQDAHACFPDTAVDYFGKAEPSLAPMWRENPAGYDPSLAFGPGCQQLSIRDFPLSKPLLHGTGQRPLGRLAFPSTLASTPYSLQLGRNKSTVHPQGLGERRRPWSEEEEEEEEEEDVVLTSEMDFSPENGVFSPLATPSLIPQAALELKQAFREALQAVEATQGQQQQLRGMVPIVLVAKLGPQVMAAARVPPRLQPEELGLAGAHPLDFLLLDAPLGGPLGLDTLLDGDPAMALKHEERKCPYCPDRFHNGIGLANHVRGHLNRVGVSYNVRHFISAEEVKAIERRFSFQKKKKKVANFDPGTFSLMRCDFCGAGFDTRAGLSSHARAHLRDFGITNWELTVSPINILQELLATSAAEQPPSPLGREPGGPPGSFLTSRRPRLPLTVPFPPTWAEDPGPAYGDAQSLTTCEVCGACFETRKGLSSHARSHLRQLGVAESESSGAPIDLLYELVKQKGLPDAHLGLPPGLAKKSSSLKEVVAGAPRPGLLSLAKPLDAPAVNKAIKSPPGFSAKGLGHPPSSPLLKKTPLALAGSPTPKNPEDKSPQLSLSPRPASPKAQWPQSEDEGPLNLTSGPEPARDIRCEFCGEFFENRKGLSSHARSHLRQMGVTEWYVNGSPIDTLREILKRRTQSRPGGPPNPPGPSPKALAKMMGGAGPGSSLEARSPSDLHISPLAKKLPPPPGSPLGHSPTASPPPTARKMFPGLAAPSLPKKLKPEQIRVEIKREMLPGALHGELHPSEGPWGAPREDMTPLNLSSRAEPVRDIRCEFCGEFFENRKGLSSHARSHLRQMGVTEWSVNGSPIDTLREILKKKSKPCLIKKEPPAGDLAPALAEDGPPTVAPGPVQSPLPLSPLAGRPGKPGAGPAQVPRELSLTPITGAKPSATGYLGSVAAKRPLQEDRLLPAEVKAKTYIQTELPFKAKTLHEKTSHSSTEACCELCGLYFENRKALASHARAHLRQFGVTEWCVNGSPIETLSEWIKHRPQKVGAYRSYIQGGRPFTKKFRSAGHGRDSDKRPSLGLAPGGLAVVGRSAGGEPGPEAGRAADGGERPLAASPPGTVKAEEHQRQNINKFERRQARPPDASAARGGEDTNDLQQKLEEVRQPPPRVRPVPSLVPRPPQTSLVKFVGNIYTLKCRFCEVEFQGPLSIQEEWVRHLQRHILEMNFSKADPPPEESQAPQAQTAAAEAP
# HiBit-WIZ fusion protein, sequence (Q96SW2 whole entry, the tested form may be a part): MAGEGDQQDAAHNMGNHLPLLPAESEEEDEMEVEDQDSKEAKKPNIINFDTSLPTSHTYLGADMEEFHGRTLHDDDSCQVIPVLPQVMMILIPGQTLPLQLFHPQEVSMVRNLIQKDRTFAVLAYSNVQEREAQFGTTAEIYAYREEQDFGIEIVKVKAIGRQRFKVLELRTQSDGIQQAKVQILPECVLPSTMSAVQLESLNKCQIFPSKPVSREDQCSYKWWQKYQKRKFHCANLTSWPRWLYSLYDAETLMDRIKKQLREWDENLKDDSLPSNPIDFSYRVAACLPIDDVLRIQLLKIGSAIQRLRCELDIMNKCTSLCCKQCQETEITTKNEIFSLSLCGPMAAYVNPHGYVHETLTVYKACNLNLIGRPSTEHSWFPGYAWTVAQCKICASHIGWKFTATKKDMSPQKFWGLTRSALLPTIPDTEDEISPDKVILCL
# HiBit-WIZ fusion protein, sequence (Q16531 whole entry partner, the tested form may be a part): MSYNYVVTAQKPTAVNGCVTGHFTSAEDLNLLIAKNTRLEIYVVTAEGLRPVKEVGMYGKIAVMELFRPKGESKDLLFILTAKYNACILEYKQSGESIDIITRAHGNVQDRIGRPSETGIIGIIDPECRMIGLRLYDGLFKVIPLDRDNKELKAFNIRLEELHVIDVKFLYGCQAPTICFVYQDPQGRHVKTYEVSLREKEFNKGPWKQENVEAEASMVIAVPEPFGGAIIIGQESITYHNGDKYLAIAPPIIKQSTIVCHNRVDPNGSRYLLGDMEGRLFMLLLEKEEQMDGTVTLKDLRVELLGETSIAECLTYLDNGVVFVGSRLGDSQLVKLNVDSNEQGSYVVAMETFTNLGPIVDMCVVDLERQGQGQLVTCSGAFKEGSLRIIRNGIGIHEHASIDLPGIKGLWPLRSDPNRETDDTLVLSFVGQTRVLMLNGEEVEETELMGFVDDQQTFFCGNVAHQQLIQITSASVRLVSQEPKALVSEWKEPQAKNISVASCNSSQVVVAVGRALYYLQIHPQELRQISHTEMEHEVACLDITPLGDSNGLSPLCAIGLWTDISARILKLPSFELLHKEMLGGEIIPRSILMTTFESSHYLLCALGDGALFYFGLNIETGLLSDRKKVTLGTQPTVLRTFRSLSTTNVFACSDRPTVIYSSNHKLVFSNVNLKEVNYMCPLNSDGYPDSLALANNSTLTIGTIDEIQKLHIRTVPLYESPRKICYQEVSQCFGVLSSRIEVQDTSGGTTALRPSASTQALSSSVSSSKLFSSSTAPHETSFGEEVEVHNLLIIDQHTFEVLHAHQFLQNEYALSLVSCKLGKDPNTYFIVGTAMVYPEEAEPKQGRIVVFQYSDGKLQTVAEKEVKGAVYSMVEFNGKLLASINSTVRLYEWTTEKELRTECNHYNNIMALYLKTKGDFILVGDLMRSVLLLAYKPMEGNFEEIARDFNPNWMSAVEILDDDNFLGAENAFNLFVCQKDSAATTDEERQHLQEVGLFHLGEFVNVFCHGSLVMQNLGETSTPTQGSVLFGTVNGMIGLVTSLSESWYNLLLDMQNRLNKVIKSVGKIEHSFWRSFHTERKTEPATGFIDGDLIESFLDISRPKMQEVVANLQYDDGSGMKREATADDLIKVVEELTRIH
Compound,Dmax [1] [%],remaining activity at up to 25 µM [2] [%],DC50 [3] [µM],"Dmax (HEK-293T, read-out: % degradation of WIZ (100-Amax)) [%]","remaining activity (HEK-293T, read-out: WIZ Amax) [%]","DC50 (read-out: WIZ AC50; WIZ HiBit assay in 293T cells; 10-point, 5-fold dose response, highest concentration 25 μM, about 18 hours) [µM]"
O=C1CCC(N2Cc3cc(OC[C@H]4CCCCN4Cc4ccccc4OCCN4CCOCC4)ccc3C2=O)C(=O)N1 (stereo partly drawn) [Compound I-50ed],92.3,7.7,0.1,,,
NS(=O)(=O)c1ccc(CN2CCCC[C@@H]2COc2ccc3c(c2)CN(C2CCC(=O)NC2=O)C3=O)cc1 (stereo partly drawn) [Compound I-50ef],,,,85.2,14.8,1.46
O=C1CCC(N2Cc3cc(OC[C@H]4CCCCN4Cc4cc(-n5nnnc5C(F)(F)F)ccc4O)ccc3C2=O)C(=O)N1 (stereo partly drawn) [Compound I-50ei],31.4,68.6,> 25,,,
O=C1CCC(N2Cc3cc(OC[C@H]4CCCCN4Cc4ncccc4O)ccc3C2=O)C(=O)N1 (stereo partly drawn) [Compound I-50ej],17.2,82.8,> 25,,,
Cc1noc(C)c1CN1CCCC[C@@H]1COc1ccc2c(c1)CN(C1CCC(=O)NC1=O)C2=O (stereo partly drawn) [Compound I-50el],30.3,69.7,> 25,,,
CCn1cc(CN2CCCC[C@@H]2COc2ccc3c(c2)CN(C2CCC(=O)NC2=O)C3=O)cn1 (stereo partly drawn) [Compound I-50eo],94,6,0.074,,,
Cc1nnsc1CN1CCCC[C@@H]1COc1ccc2c(c1)CN(C1CCC(=O)NC1=O)C2=O (stereo partly drawn) [Compound I-50ep],12.4,87.6,> 25,,,
Cc1cc(CN2CCCC[C@@H]2COc2ccc3c(c2)CN(C2CCC(=O)NC2=O)C3=O)no1 (stereo partly drawn) [Compound I-50eq],88.4,11.6,0.272,,,
CCOC(=O)c1cccc2[nH]nc(CN3CCCC[C@@H]3COc3ccc4c(c3)CN(C3CCC(=O)NC3=O)C4=O)c12 (stereo partly drawn) [Compound I-50er],89.8,10.2,0.92,,,
O=C1CCC(N2Cc3cc(OC[C@H]4CCCCN4Cc4ncc[nH]4)ccc3C2=O)C(=O)N1 (stereo partly drawn) [Compound I-50et],49.1,50.9,> 25,,,
O=C1CCC(N2Cc3cc(OC[C@@H]4CCCCN4Cc4cccn4S(=O)(=O)c4ccccc4)ccc3C2=O)C(=O)N1 (stereo partly drawn) [Compound I-50f],82.6,17.4,0.816,,,
COC(=O)c1ccc(Oc2ccc(CN3CCCC[C@H]3COc3ccc4c(c3)CN(C3CCC(=O)NC3=O)C4=O)cc2)cc1 (stereo partly drawn) [Compound I-50g],88.9,11.1,0.097,,,
N#Cc1ccccc1CN1CCCC[C@H]1COc1ccc2c(c1)CN(C1CCC(=O)NC1=O)C2=O (stereo partly drawn) [Compound I-50h],59.4,40.6,13.6,,,
Cc1nnc(-c2ccc(CN3CCCC[C@H]3COc3ccc4c(c3)CN(C3CCC(=O)NC3=O)C4=O)cc2)o1 (stereo partly drawn) [Compound I-50i],28.8,71.2,> 25,,,
O=C1CCC(N2Cc3cc(OC[C@@H]4CCCCN4Cc4ccc(C(=O)N5CCCC5)cc4)ccc3C2=O)C(=O)N1 (stereo partly drawn) [Compound I-50j],65.4,34.6,3.49,,,
O=C1CCC(N2Cc3cc(OC[C@@H]4CCCCN4Cc4ccc[nH]c4=O)ccc3C2=O)C(=O)N1 (stereo partly drawn) [Compound I-50k],34.7,65.3,> 25,,,
CN(C)c1ncc(CN2CCCC[C@H]2COc2ccc3c(c2)CN(C2CCC(=O)NC2=O)C3=O)cn1 (stereo partly drawn) [Compound I-50m],46.6,53.4,> 25,,,
O=C1CCC(N2Cc3cc(OC[C@@H]4CCCCN4Cc4ccc(N5CCCC5=O)cc4)ccc3C2=O)C(=O)N1 (stereo partly drawn) [Compound I-50o],58.4,41.6,12.5,,,
O=C1CCC(N2Cc3cc(OC[C@@H]4CCCCN4Cc4ccccc4Cn4cncn4)ccc3C2=O)C(=O)N1 (stereo partly drawn) [Compound I-50q],4.5,95.5,> 25,,,
COc1cc(C#N)ccc1CN1CCCC[C@H]1COc1ccc2c(c1)CN(C1CCC(=O)NC1=O)C2=O (stereo partly drawn) [Compound I-50r],34.4,65.6,> 25,,,
COc1cc(CN2CCCC[C@H]2COc2ccc3c(c2)CN(C2CCC(=O)NC2=O)C3=O)ccc1C (stereo partly drawn) [Compound I-50s],84.3,15.7,3.8,,,
Cn1ccc2c(CN3CCCC[C@H]3COc3ccc4c(c3)CN(C3CCC(=O)NC3=O)C4=O)cccc21 (stereo partly drawn) [Compound I-50t],85.2,14.8,0.269,,,
Cc1nccn1-c1ccc(CN2CCCC[C@H]2COc2ccc3c(c2)CN(C2CCC(=O)NC2=O)C3=O)cc1 (stereo partly drawn) [Compound I-50u],70.1,29.9,2.64,,,
O=C1CCC(N2Cc3cc(OC[C@@H]4CCCCN4Cc4ncc[nH]4)ccc3C2=O)C(=O)N1 (stereo partly drawn) [Compound I-50w],25.9,74.1,> 25,,,

# Next, values leading:
Dmax [1] [%],remaining activity at up to 25 µM [2] [%],DC50 [3] [µM],"Dmax (HEK-293T, read-out: % degradation of WIZ (100-Amax)) [%]","remaining activity (HEK-293T, read-out: WIZ Amax) [%]","DC50 (read-out: WIZ AC50; WIZ HiBit assay in 293T cells; 10-point, 5-fold dose response, highest concentration 25 μM, about 18 hours) [µM]",Compound
100,0,0.017,,,,O=C1CCC(N2Cc3cc(OC[C@H]4CCCCN4Cc4cnn(C5CCCCC5)c4)ccc3C2=O)C(=O)N1 (stereo partly drawn) [Compound I-50ec]
99.6,0.4,0.004,,,,O=C1CCC(N2Cc3cc(OC[C@H]4CCCCN4Cc4ccc(-n5nccn5)cc4)ccc3C2=O)C(=O)N1 (stereo partly drawn) [Compound I-50eg]
97.2,2.8,0.013,,,,O=C1CCC(N2Cc3cc(OC[C@H]4CCCCN4Cc4cccc(Cn5ccnc5)c4)ccc3C2=O)C(=O)N1 (stereo partly drawn) [Compound I-50eh]
99.1,0.9,0.004,,,,O=C1CCC(N2Cc3cc(OC[C@H]4CCCCN4Cc4ccc(Cn5ccnc5)cc4)ccc3C2=O)C(=O)N1 (stereo partly drawn) [Compound I-50ek]
99.8,0.2,0.004,,,,O=C1CCC(N2Cc3cc(OC[C@H]4CCCCN4Cc4cccc(Cn5cccn5)c4)ccc3C2=O)C(=O)N1 (stereo partly drawn) [Compound I-50en]
99.5,0.5,0.003,,,,O=C1CCC(N2Cc3cc(OC[C@H]4CCCCN4Cc4ccc(N5CCCC5)nc4)ccc3C2=O)C(=O)N1 (stereo partly drawn) [Compound I-50es]
99.3,0.7,0.003,,,,COc1cc(CN2CCCC[C@@H]2COc2ccc3c(c2)CN(C2CCC(=O)NC2=O)C3=O)ccc1C (stereo partly drawn) [Compound I-50eu]
98,2,0.051,,,,COc1cc2[nH]nc(CN3CCCC[C@@H]3COc3ccc4c(c3)CN(C3CCC(=O)NC3=O)C4=O)c2cc1OCc1ccccc1 (stereo partly drawn) [Compound I-50ev]
99.3,0.7,0.026,,,,Cc1nccn1-c1ccc(CN2CCCC[C@@H]2COc2ccc3c(c2)CN(C2CCC(=O)NC2=O)C3=O)cc1 (stereo partly drawn) [Compound I-50ew]
98.3,1.7,0.022,,,,O=C1CCC(N2Cc3cc(OC[C@@H]4CCCCN4Cc4c(F)cccc4Cl)ccc3C2=O)C(=O)N1 (stereo partly drawn) [Compound I-50n]
93.2,6.8,0.047,,,,O=C1CCC(N2Cc3cc(OC[C@@H]4CCCCN4Cc4cnn(C5CCCCC5)c4)ccc3C2=O)C(=O)N1 (stereo partly drawn) [Compound I-50p]

# From patent publication US11566022B2, “3-(5-methoxy-1-oxoisoindolin-2-yl)piperidine-2,6-dione derivatives and uses thereof” (NOVARTIS AG, priority 2019, dated 2023)
